These results are taken from publication PMC5369532, “NMR-filtered virtual screening leads to non-metal chelating metallo-β-lactamase inhibitors” (Chemical Science, 2016).

The target of one assay is T1, NDM-1 (Klebsiella pneumoniae, UniProt C7C422).
T1 construct: made in house; host or cells: Escherichia coli
The assay can be described thus: NDM-1 inhibition, selectivity profile (FC5 substrate). Format: biochemical. Particulars: Fig. 4. The method, then:
(§1) Except where noted, recombinant forms of NDM-1, VIM-2, SPM-1, IMP-1, and BcII MBLs were produced in Escherichia coli and assays were carried out as described previously10. The IC50 values of all the compounds for VIM-2 were determined using […]
(§2) the FC-5 based assay10. […]
(§3) concentrations (0 μM, 1 μM, and 100 μM, see Fig. S8). The selectivity profiles of compounds of interest against other B1 MBLs including VIM-511, VIM-110, NDM-1, SPM-1, and BcII, and TEM-112 (class A SBL) were determined using the same method as described above. The inhibitory activities of these compounds against CphA (B2 […]
(§4) Enzymea Categorya [E]b, (nM) Substrate [Substrate], (μM) […]
(§5) CphA Class B2 MBL 2.5 Meropenem 125 […]
(§6) TEM-1 Class A SBL 2.5 FC5 5 a MBL: Metallo β-lactamase; SBL: serine β-lactamase; VIM, Verona Integron–encoded MBL; IMP, Imipenemase; NDM, New Delhi MBL; TEM-1: Temomeira-type 1 […]
(§7) b The enzyme concentrations of the purified proteins were determined by measuring Abs@280nm using a NanoDrop (ThermoFisher) spectrometer and calculated molar extinction coefficient for each sample; concentrations of diluted solutions used in the assay were calculated from the original concentration. […]
(§8) negative controls. These were tested in same assay conditions but at 2mM instead of 100uM compound concentration.

The target in the next assay is SPM-1 (Pseudomonas aeruginosa, UniProt Q8G9Q0). The assay can be described thus: SPM-1 inhibition, selectivity profile (FC5 substrate). The format is biochemical. Particulars: Fig. 4. The method, then: as §1, §2, §3, §4, §5, §6, §7, §8
A further assay deals with T2, BcII (Bacillus cereus, UniProt P04190).
T2 construct: made in house; host or cells: Escherichia coli
The experiment in a line: BcII inhibition, selectivity profile (FC5 substrate). Format: biochemical. Particulars: Fig. 4. The procedure: as §1, §2, §3, §4, §5, §6, §7, §8

In the next assay the target is CphA (Aeromonas hydrophila, UniProt P26918). The assay can be described thus: biochemical. The method, then:
as §1
(§9) concentrations (0 μM, 1 μM, and 100 μM, see Fig. S8). The selectivity profiles of […]
(§10) as described above. The inhibitory activities of these compounds against CphA (B2 MBL)13 and L1 (B3 MBL)14 were determined using meropenem and nitrocefin, […]
(§11) at 100 μM. […]
(§12) MBL; IMP, Imipenemase; NDM, New Delhi MBL; TEM-1: Temomeira-type 1 […]
as §7
(§13) negative controls. These were tested in same assay conditions but at 2mM instead of 100uM compound concentration. […]

In a further assay the target is L1 (Stenotrophomonas maltophilia, UniProt P52700). The experiment in a line: biochemical. The procedure:
as §1, §9, §10, §11, §12, §7, §13

The next assay deals with TEM-1 (Escherichia coli, UniProt P62593). The assay can be described thus: TEM-1 inhibition, selectivity profile (FC5 substrate). The note with it: Fig. 4. Format: biochemical.
The target in the next assay is T3, VIM-2 (Escherichia coli, UniProt Q5U7L7).
T3 construct: made in house; host or cells: Escherichia coli
The assay can be described thus: biochemical. The format is biochemical. The method, then: as §1, §9
as described above. The inhibitory activities of these compounds against CphA (B2 […]
as §12, §7, §13

Another assay addresses VIM-1 (Pseudomonas aeruginosa, UniProt A0A0F7KYQ8). The assay can be described thus: biochemical. The note with it: n ≥ 3.
The next assay deals with apo-VIM-2 (Escherichia coli, UniProt Q5U7L7). The format is binding. Particulars: 50 μM apo enzyme, 50 μM compound, 50 mM Tris-D11 pH 7.5. The method, then: (§14) Except where noted, recombinant forms of NDM-1, VIM-2, SPM-1, IMP-1, and BcII MBLs were produced in Escherichia coli and assays were carried out as described […]
(§15) previously10. […]
(§16) Nuclear Magnetic Resonance (NMR) spectra were recorded using a Bruker AVIII 600 MHz NMR spectrometer equipped with a BB-19F/1H Prodigy N2 cryoprobe using 5 mm diameter NMR tubes (Norell). Typical experimental parameters for Carr-Purcell-Meiboom-Gill (CPMG) NMR spectroscopy were: total echo time, 40 ms; […]
(§17) The PROJECT-CPMG sequence
(§18) (90°x−[τ−180°y−τ−90°y−τ−180°y−τ]n−acq) was applied. 15 Water suppression was achieved by pre-saturation. Data were processed with Bruker 3.1 software. Prior to […]
(§19) Fourier transformation, data were multiplied with an exponential function with 0.5 Hz […]
(§20) line broadening. […]

A further assay has as its target T4, di-Zn(II) VIM-2 (Escherichia coli, UniProt Q5U7L7).
T4 construct: made in house
Format: binding. Particulars: 50 μM enzyme, 50 μM Zn(II), 50 μM compound, 50 mM Tris-D11 pH 7.5. The method, then: as §14, §15, §16, §17, §18, §19, §20

pIC50: −log10 of the molar value.

T1 sequence (C7C422 29-270, looked up, species assumed): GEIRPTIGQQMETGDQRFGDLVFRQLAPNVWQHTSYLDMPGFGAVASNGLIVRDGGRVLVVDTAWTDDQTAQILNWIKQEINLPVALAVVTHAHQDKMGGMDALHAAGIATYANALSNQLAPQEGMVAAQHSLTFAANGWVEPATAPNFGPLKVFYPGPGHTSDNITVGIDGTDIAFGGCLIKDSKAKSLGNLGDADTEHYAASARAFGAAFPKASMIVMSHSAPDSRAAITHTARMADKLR
T2 sequence (P04190 31-257): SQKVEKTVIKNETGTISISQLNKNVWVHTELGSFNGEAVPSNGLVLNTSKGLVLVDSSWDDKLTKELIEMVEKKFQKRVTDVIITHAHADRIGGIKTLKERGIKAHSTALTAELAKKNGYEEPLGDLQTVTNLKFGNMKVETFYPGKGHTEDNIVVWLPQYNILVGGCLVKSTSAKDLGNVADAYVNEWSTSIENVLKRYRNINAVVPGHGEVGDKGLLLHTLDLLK
TEM-1, sequence (P62593 24-286 limits assumed): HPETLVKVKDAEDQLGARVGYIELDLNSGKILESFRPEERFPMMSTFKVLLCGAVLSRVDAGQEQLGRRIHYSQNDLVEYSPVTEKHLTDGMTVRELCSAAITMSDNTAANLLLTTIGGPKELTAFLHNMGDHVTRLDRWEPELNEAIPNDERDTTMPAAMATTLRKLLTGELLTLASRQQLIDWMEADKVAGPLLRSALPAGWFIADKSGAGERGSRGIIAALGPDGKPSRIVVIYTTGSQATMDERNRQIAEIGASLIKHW
SPM-1, sequence (Q8G9Q0 entry or part of it): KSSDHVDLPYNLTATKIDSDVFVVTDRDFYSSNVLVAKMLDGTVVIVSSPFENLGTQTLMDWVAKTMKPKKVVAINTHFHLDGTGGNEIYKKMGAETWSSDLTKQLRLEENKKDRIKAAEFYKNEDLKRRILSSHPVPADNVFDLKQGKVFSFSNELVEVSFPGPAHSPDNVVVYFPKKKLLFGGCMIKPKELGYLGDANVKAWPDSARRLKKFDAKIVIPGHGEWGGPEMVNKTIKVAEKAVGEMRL
L1, sequence (P52700 34-290): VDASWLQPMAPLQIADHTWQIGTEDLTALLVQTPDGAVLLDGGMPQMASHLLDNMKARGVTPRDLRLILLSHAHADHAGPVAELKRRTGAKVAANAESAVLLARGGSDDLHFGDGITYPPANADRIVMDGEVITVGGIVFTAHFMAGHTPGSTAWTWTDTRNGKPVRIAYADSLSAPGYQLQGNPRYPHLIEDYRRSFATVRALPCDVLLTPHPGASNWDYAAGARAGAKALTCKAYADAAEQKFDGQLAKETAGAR
CphA, sequence (P26918 28-254): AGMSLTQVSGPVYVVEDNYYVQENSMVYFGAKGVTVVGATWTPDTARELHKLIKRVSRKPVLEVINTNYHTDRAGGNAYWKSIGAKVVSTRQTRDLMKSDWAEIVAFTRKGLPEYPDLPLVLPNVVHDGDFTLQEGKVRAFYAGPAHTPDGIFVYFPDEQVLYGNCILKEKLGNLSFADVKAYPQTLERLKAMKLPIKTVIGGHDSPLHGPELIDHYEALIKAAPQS

Turning to `O=C(O)c1cccc2c1C(=O)N(Cc1c(F)cccc1Cl)C2` [Compound 16], the pIC50 against NDM-1, at SPM-1, at BcII, at CphA and at L1 was < 3.40 each time. The “inhibition of class A serine β-lactamase TEM-1 (in words)” value at TEM-1 is listed as “no inhibition was observed”.

On to `O=C(O)c1cccc2c1C(=O)N(c1cccc(C(F)(F)F)c1)C2` [Compound 17], for which the “differences between the inhibitory activity with or without excess Zn(II)” value on VIM-2 (0 μM, 1 μM and 100 μM Zn(II)) is given as “no obvious differences”. The pIC50 at VIM-2 (FC-5 based assay, n ≥ 3, read-out: IC50 (VIM-2)) was 4.48; on VIM-1, < 3.40; against NDM-1, < 3.40; against SPM-1, < 3.40; against BcII, < 3.40; against CphA it was < 3.40. For the same molecule, on L1, the pIC50 was < 3.40. Further, the “inhibition of class A serine β-lactamase TEM-1 (in words)” value at TEM-1 is on record as “no inhibition was observed”. Further, the “binding to apo-VIM-2 by 1H CPMG NMR” value at apo-VIM-2 was “binding and bind”. Also, the “binding to di-Zn(II) VIM-2 by 1H CPMG NMR” value at di-Zn(II) VIM-2 was “binding and bind”.
